# According to patent US20160089471A1, “SHEET FOR CUTANEOUS APPLICATION CONTAINING VITAMIN E OR AN ESTER THEREOF” (BIO.LO.GA. S.R.L., priority 2013, published 2016):
# Legend:
# [1] = tested on: reconstituted human epidermis Epi-200 EpiDerm™; test: Release of IL-1α in the culture medium (ELISA); conditions: 18-hour treatment; Tukey Kramer Multiple Comparisons Test
# From the text: Further information for better defining the irritation potential was obtained from subsequent measurement of the following parameters: • evaluation of the release, in the culture medium, of the lactate dehydrogenase (LDH), a cytoplasmic enzyme, release of which indicates loss of integrity of the cellular membrane; • evaluation of the release, in the culture medium, of pro-inflammatory cytokine by means of ELISA (Enzyme Linked Immunosorbent Assay).
# Tissue used: EPI-200-SIT EpiDerm™
# Culture medium: EPI-100-MM-HCF-60
# (§1) Incubation conditions: +37° C. in a 5% CO2 atmosphere
# (§2) Treatment with the sample: • continuous contact and incubation for 18 hours (single) • continuous contact and incubation for 7 days (double)
# (§3) Application was carried out by applying about 1 cm^2 of sample (i.e. of the sheet according to the invention obtained as per the example given above) per insert.
# Controls Performed for the First Evaluation (18 hours): • Negative control after 18 hours: inserts not treated • Positive control: inserts treated with 0.5% SDS (Sodium Dodecylsulphate) in sterile water during 18 hours of incubation; […]
# Evaluation in the culture medium obtained after the period of incubation of the sample with EPI-200. The release is measured by means of specific ELISA.
# [2] = tested on: reconstituted human epidermis Epi-200 EpiDerm™; test: Cytotoxicity by release of lactate dehydrogenase (LDH) in the culture medium; conditions: 18-hour treatment; Tukey Kramer Multiple Comparisons Test
# Method: Tissue used: EPI-200-SIT EpiDerm™
# Culture medium: EPI-100-MM-HCF-60
# as §1, §2, §3
# (§4) Controls Performed for the First Evaluation (18 hours): • Negative control after 18 hours: inserts not treated • Positive control: inserts treated with 0.5% SDS (Sodium Dodecylsulphate) in sterile water during 18 hours of incubation;
# (§5) Controls Performed for the 7-Day Evaluation: • Negative control: inserts not treated with the sample and kept for 7 days in the same incubation conditions as those treated with the sample.
# Evaluation of the Cytotoxicity by Means of Measurement of the Release of the Lactate Dehydrogenase (LDH) in the Culture Medium:
# Evaluation in the culture medium obtained after the incubation period of the sample with the epidermis model. The culture medium is incubated with a specific reagent so as to allow quantitive determination of the lactate dehydrogenase at 490 nm.
# [3] = tested on: reconstituted human epidermis Epi-200 EpiDerm™; test: Cellular vitality by MTT assay on reconstituted epidermis (EpiDerm Skin Irritation Test, cumulative irritation); conditions: 18-hour treatment
# Method: The assay in question was based on the In vitro Epiderm™ Skin Irritation Test (EPI-200-SIT) developed by the MatTek Corporation, which uses the model of reconstituted human epidermis Epi-200 EpiDerm™.
# The assay consists in topical application of the material under testing on the reconstituted epidermis for contact times equal to or greater than 18 hours. The irritation potential is determined by means of evaluation of the cellular vitality using the MTT assay.
# Tissue used: EPI-200-SIT EpiDerm™
# Culture medium: EPI-100-MM-HCF-60
# as §1, §2, §4, §5
# MTT assay: colorimetric determination of the vitality of the keratinocytes of the insert based on the reduction of the yellow tetrazolium salts (MTT) to blue formazan by mitochondrial dehydrogenases.
# continuous stimulation (overnight contact and incubation)
smiles,measurement,setting,value
"CCCCCCCCCCCCOS(=O)(=O)[O-].[Na+] [Positive control, Sodium Dodecylsulphate]",Statistical comparison of IL-1α release in relation to the negative control,[1],*** (*** p < 0.001 extremely significant variation)
same,Statistical comparison of LDH release in relation to the negative control,[2],*** (*** p < 0.001 extremely significant variation)
same,Average value of OD ± SD,[3]; continuous contact,0.185 ± 0.004
same,Average value of the % vitality,[3]; relative to negative control = 100%,8.40 ± 0.17%
